Test results as given in ChEMBL document CHEMBL1136346, “Synthesis of linked carbohydrates and evaluation of their binding for 16S RNA by mass spectrometry” (Bioorg Med Chem Lett, 2003).

Experiment: Binding affinity against bacterial 16S rRNA using mass spectrometry based assay
Parameters: species or system Escherichia coli

SMILES | Kd [µM]
N[C@@H]1C[C@H](N)[C@@H](O)[C@H](O)[C@H]1O | 130
CN(CCCCN(C)CC(O)CO[C@@H]1[C@@H](O)[C@H](N)C[C@H](N)[C@H]1O)CC(O)CO[C@H]1O[C@H](CN)[C@@H](O)[C@H](O)[C@H]1N (stereo partly drawn) | 25
CN(CCCCN(C)CC(O)CO[C@H]1[C@H](O)[C@@H](O)[C@H](N)C[C@@H]1N)CC(O)CO[C@H]1O[C@H](CO)[C@@H](O)[C@H](O)[C@H]1N (stereo partly drawn) | 54
CN(CCN(C)CC(O)CO[C@H]1O[C@H](CN)[C@@H](O)[C@H](O)[C@H]1N)CC(O)CO[C@@H]1O[C@H](CN)[C@@H](O)[C@H](O)[C@H]1N (stereo partly drawn) | 20
NC[C@H]1O[C@H](OCC(O)CN2CCN(CC(O)CO[C@H]3O[C@H](CN)[C@@H](O)[C@H](O)[C@H]3N)CC2)[C@H](N)[C@@H](O)[C@@H]1O (stereo partly drawn) | 32
CN(CCCCN(C)CC(O)CO[C@H]1O[C@H](CN)[C@@H](O)[C@H](O)[C@H]1N)CC(O)CO[C@@H]1O[C@H](CN)[C@@H](O)[C@H](O)[C@H]1N (stereo partly drawn) | 16
CN(CCN(C)CC(O)CO[C@H]1[C@H](O)[C@@H](O)[C@H](N)C[C@@H]1N)CC(O)CO[C@H]1O[C@H](CN)[C@@H](O)[C@H](O)[C@H]1N (stereo partly drawn) | 47
CN(CCCCN(C)CC(O)CO[C@H]1O[C@H](CO)[C@@H](O)[C@H](O)[C@H]1N)CC(O)CO[C@@H]1O[C@H](CO)[C@@H](O)[C@H](O)[C@H]1N (stereo partly drawn) | 45
CN(CCN(C)CC(O)CO[C@H]1[C@H](O)[C@@H](O)[C@H](N)C[C@@H]1N)CC(O)CO[C@H]1O[C@H](CO)[C@@H](O)[C@H](O)[C@H]1N (stereo partly drawn) | 335
CN(CCCCCCN(C)CC(O)CO[C@H]1O[C@H](CN)[C@@H](O)[C@H](O)[C@H]1N)CC(O)CO[C@@H]1O[C@H](CN)[C@@H](O)[C@H](O)[C@H]1N (stereo partly drawn) | 11
CN(CCCCN(C)CC(O)CO[C@H]1[C@H](O)[C@@H](O)[C@H](N)C[C@@H]1N)CC(O)CO[C@H]1[C@H](O)[C@@H](O)[C@H](N)C[C@@H]1N (stereo partly drawn) | 16
CN(CCCCCCN(C)CC(O)CO[C@H]1[C@H](O)[C@@H](O)[C@H](N)C[C@@H]1N)CC(O)CO[C@H]1O[C@H](CO)[C@@H](O)[C@H](O)[C@H]1N (stereo partly drawn) | 39
N[C@@H]1C[C@H](N)[C@@H](O)[C@H](OCC(O)CNCCCCNCC(O)CO[C@@H]2[C@@H](O)[C@H](N)C[C@H](N)[C@H]2O)[C@H]1O (stereo partly drawn) | 96

Results, then the molecule that gave them:

Kd [µM] | SMILES
52 | CN(CCCCCCN(C)CC(O)CO[C@H]1O[C@H](CO)[C@@H](O)[C@H](O)[C@H]1N)CC(O)CO[C@@H]1O[C@H](CO)[C@@H](O)[C@H](O)[C@H]1N (stereo partly drawn)
21 | CN(CCCCCCN(C)CC(O)CO[C@H]1[C@H](O)[C@@H](O)[C@H](N)C[C@@H]1N)CC(O)CO[C@H]1[C@H](O)[C@@H](O)[C@H](N)C[C@@H]1N (stereo partly drawn)
327 | C=CCO[C@H]1O[C@H](CN)C(O)[C@H](O)[C@H]1N (stereo partly drawn)
1590 | C=CCO[C@H]1O[C@H](CO)[C@@H](O)[C@H](O)[C@H]1N
105 | N[C@@H]1C[C@H](N)[C@@H](OC(=O)CCCC(=O)O[C@H]2[C@H](O)[C@@H](O)[C@H](N)C[C@@H]2N)[C@H](O)[C@H]1O
32 | CN(CCCCCCN(C)CC(O)CO[C@H]1[C@H](O)[C@@H](O)[C@H](N)C[C@@H]1N)CC(O)CO[C@H]1O[C@H](CN)[C@@H](O)[C@H](O)[C@H]1N (stereo partly drawn)
57 | CN(CCN(C)CC(O)CO[C@H]1[C@H](O)[C@@H](O)[C@H](N)C[C@@H]1N)CC(O)CO[C@H]1[C@H](O)[C@@H](O)[C@H](N)C[C@@H]1N (stereo partly drawn)
29 | CN(CCCCN(C)CC(O)CO[C@@H]1[C@@H](O)[C@H](N)C[C@H](N)[C@H]1O)CC(O)CO[C@H]1O[C@H](CO)[C@@H](O)[C@H](O)[C@H]1N (stereo partly drawn)
13 | CN(CCCCN(C)CC(O)CO[C@H]1[C@H](O)[C@@H](O)[C@H](N)C[C@@H]1N)CC(O)CO[C@H]1O[C@H](CN)[C@@H](O)[C@H](O)[C@H]1N (stereo partly drawn)
146 | CN(CCN(C)CC(O)CO[C@H]1O[C@H](CO)[C@@H](O)[C@H](O)[C@H]1N)CC(O)CO[C@@H]1O[C@H](CO)[C@@H](O)[C@H](O)[C@H]1N (stereo partly drawn)
